Source: patent publication US8846570B2, “Herbicidal compositions comprising 4-amino-3-chloro-5-fluoro-6-(4-chloro-2-fluoro-3-methoxyphenyl)pyridine-2-carboxylic acid or a derivative thereof and microtubule inhibiting herbicides” (Dow AgroSciences LLC, priority 2012, dated 2014)

Experiments:
Assay type in all cases: in vivo
[1] = test system: Leptochloa chinensis (L.) Nees (LEFCH); assay: In-water applied, transplanted paddy rice, greenhouse: visual weed control; details: 21 DAA
Procedure: Weed seeds or nutlets of the desired test plant species were planted in puddled soil (mud) prepared by mixing a shredded, non-sterilized mineral soil (50.5 percent silt, 25.5 percent clay, and 24 percent sand, with a pH of about 7.6 and an organic matter content of about 2.9 percent) and water at a 1:1 volumetric ratio. The prepared mud was dispensed in 365 mL aliquots into 16-ounce (oz.) non-perforated plastic pots with a surface area of 86.59 square centimeters (cm^2) leaving a headspace of 3 centimeters (cm) in each pot. Mud was allowed to dry overnight prior to planting or transplanting. Rice seeds were planted in Sun Gro MetroMix® 306 planting mixture, which typically has a pH of 6.0 to 6.8 and an organic matter content of about 30 percent, in plastic plug trays. Seedlings at the second or third leaf stage of growth were transplanted into 860 mL of mud contained in 32-oz. non-perforated plastic pots with a surface area of 86.59 cm^2 4 days prior to herbicide application. The paddy was created by filling the headspace of the pots with 2.5 to 3 cm of water. When required to ensure good germination and healthy plants, a fungicide treatment and/or other chemical or physical treatment was applied. The plants were grown for 4-22 days in a greenhouse with an approximate 14 h photoperiod which was maintained at about 29° C. during the day and 26° C. during the night. Nutrients were added as Osmocote® (19:6:12, N:P:K+minor nutrients) at 2 g per 16.-oz. pot and 4 g per 32-oz. pot. Water was added on a regular basis to maintain the paddy flood, and supplemental lighting was provided with overhead metal halide 1000-Watt lamps as necessary. The plants were employed for testing when they reached the first through fourth true leaf stage.
Treatments consisted of the acid or esters of 4-amino-3-chloro-5-fluoro-6-(4-chloro-2-fluoro-3-methoxy-phenyl)pyridine-2-carboxylic acid (compound A) each formulated as an SC and various herbicidal components alone and in combination. Forms of compound A were applied on an acid equivalent basis.
Treatment requirements for each compound or herbicidal component were calculated based upon the rates being tested, the concentration of active ingredient or acid equivalent in the formulation, an application volume of 2 mL per component per pot, and an application area of 86.59 cm^2 per pot.
For formulated compounds, a measured amount was placed in an individual 100 or 200 mL glass vial and was dissolved in a volume of 1.25% (v/v) Agri-Dex® crop oil concentrate to obtain application solutions.
For technical grade compounds, a weighed amount was placed in an individual 100 to 200 mL glass vial and was dissolved in a volume of acetone to obtain concentrated stock solutions. […] The concentrated stock solutions obtained were diluted with an equivalent volume of an aqueous mixture containing 2.5% (v/v) crop oil concentrate so that the final application solutions contained 1.25% (v/v) crop oil concentrate.
Applications were made by injecting, with a pipetter, appropriate amounts of the application solutions into the aqueous layer of the paddy. Control plants were treated in the same manner with the solvent blank. Applications were made so that all treated plant material received the same concentrations of acetone and crop oil concentrate.
(§1) The treated plants and control plants were placed in a greenhouse as described above and water was added as needed to maintain a paddy flood. After approximately 3 weeks the condition of the test plants as compared with that of the untreated plants was determined visually and scored on a scale of 0 to 100 percent where 0 corresponds to no injury or growth inhibition and 100 corresponds to complete kill.
Colby's equation was used to determine the herbicidal effects expected from the mixtures (Colby, S. R. 1967. Calculation of the synergistic and antagonistic response of herbicide combinations. Weeds 15:20-22.). […]

[2] = test system: Echinochloa crusgalli (L.) Beauv. (ECHCG); assay: Postemergence foliar-applied, direct seeded rice, greenhouse: visual weed control; details: 21 DAA
Procedure: (§2) Seeds or nutlets of the desired test plant species were planted in a soil matrix prepared by mixing a loam or sandy loam soil (e.g., 28.6 percent silt, 18.8 percent clay, and 52.6 percent sand, with a pH of about 5.8 and an organic matter content of about 1.8 percent) and calcareous grit in an 80 to 20 ratio. The soil matrix was contained in plastic pots with a volume of 1 quart and a surface area of 83.6 cm^2. […] The plants were grown for 8-22 days in a greenhouse with an approximate 14 h photoperiod which was maintained at about 29° C. during the day and 26° C. during the night. Nutrients (Peters Excel® 15-5-15 5-Ca 2-Mg and iron chelate) were applied in the irrigation solution as needed and water was added on a regular basis. Supplemental lighting was provided with overhead metal halide 1000-Watt lamps as necessary. The plants were employed for testing when they reached the first through fourth true leaf stage.
(§3) Forms of compound A were applied on an acid equivalent basis.
(§4) For treatments comprised of formulated compounds, measured amounts of compounds were placed individually in 25 mL glass vials and diluted in a volume of 1.25% (v/v) Agri-Dex® crop oil concentrated to obtain 12× stock solutions. […] Application solutions were prepared by adding an appropriate amount of each stock solution (e.g., 1 mL) and diluted to the appropriate final concentrations with the addition of 10 mL of an aqueous mixture of 1.25% (v/v) crop oil concentrate so that the final spray solutions contained 1.25+/−0.05% (v/v) crop oil concentrate.
(§5) As required, additional water and/or 97:3 v/v acetone/DMSO was added to individual application solutions so that the final acetone and DMSO concentrations of the application solutions being compared were 8.1% and 0.25%, respectively.
(§6) All stock solutions and applications solutions were visually inspected for compound compatibility prior to application. Spray solutions were applied to the plant material with an overhead Mandel track sprayer equipped with a 8002E nozzles calibrated to deliver 187 L/ha over an application area of 0.503 m^2 at a spray height of 18 to 20 inches (46 to 50 cm) above average plant canopy height. Control plants were sprayed in the same manner with the solvent blank.
as §1, with “watered by sub-irrigation” for “water was added as needed”, “prevent wash-off of the test compounds.” for “maintain a paddy flood.”, “weeks,” for “weeks”
(§7) Colby's equation was used to determine the herbicidal effects expected from the mixtures (Colby, S. R. 1967. Calculation of the synergistic and antagonistic response of herbicide combinations. Weeds 15:20-22.).
(§8) The following equation was used to calculate the expected activity of mixtures containing two active ingredients, A and B: Expected=A+B−(A×B/100)

[3] = test system: Ipomoea hederacea Jacq. (IPOHE); assay: as above; details: post-emergence, 504 h, read-out: Visual Weed Control (%) Obs
Procedure: as §2, §3, §4, §5, §6
as §1, with “watered by sub-irrigation” for “water was added as needed”, “prevent wash-off of the test compounds.” for “maintain a paddy flood.”, “weeks,” for “weeks”
as §7, §8

Compound: CCCCOC(=O)c1nc(-c2ccc(Cl)c(OC)c2F)c(F)c(N)c1Cl [Compound A n-Butyl Ester]
- Visual Weed Control (%) Obs ([1]; 35 g ae/ha): 8%
- Visual Weed Control (%) Obs ([1]; 70 g ae/ha): 38%
- Visual Weed Control (%) Obs ([2]; 17.5 g ae/ha): 45%
- Visual Weed Control (%) Obs ([2]; 35 g ae/ha): 70%
- pest or weed control at 17.5 g/ha [3]: 40%
